Assay results: patent publication US7351861B2 (priority 2002, dated 2008)
Where two headings read alike, the source gives them in different places.

Tested on: luciferase light signal from pIB29EL (yopE-luxAB)
Assay: microbe, parasite or virus in culture
Format: cell-based, Yersinia pseudotuberculosis
Details: for IC50: read-out: IC50 (concentration resulting in 50% reduction of luciferase light emission); for inhibition at 5 µM: read-out: Inhibition (%) of the luciferase light signal, 5 μM; for inhibition at 10 µM: read-out: Inhibition (%) of the luciferase light signal, 10 μM; for inhibition at 20 µM: read-out: Inhibition (%) of the luciferase light signal, 20 μM; for inhibition at 50 µM: read-out: Inhibition (%) of the luciferase light signal, 50 μM; for inhibition at 100 µM: read-out: Inhibition (%) of the luciferase light signal, 100 μM
[1] = 10 μM, strain pIB29EL, Table 2C
[2] = 20 μM, strain pIB29EL, Table 2C
[3] = 50 μM, strain pIB29EL, Table 2C
[4] = 100 μM, strain pIB29EL, Table 2C
[5] = Yersinia pseudotuberculosis, strain pIB29EL, Table 2C

CC(=O)Oc1c(Cl)cc(Cl)c(Cl)c1C(=O)Nc1ccc(SC(F)(F)F)cc1 [Compound 47]
Inhibition (%) of the luciferase light signal (5 μM, strain pIB29EL, Table 2C): 55% | Inhibition (%) of the luciferase light signal [1]: 61% | Inhibition (%) of the luciferase light signal [2]: 73% | Inhibition (%) of the luciferase light signal [3]: 90% | Inhibition (%) of the luciferase light signal [4]: 90%

O=C(Nc1cc(Cl)ccc1F)c1cc(I)cc(I)c1O [Compound 48]
Inhibition (%) of the luciferase light signal (5 μM, strain pIB29EL, Table 2C): 36% | Inhibition (%) of the luciferase light signal [1]: 75% | Inhibition (%) of the luciferase light signal [2]: 88% | Inhibition (%) of the luciferase light signal [3]: 89% | Inhibition (%) of the luciferase light signal [4]: 88%

Polymixin B [reference compound]
Inhibition of light-emission (in words): dose-dependent inhibition of light-emission | IC50: 150 nM

CC(=O)Oc1ccc(I)cc1C(=O)Nc1ccc(Cl)cc1 [Compound 62]
Inhibition (%) of the luciferase light signal (5 μM, strain pIB29EL, Table 2C): 95% | Inhibition (%) of the luciferase light signal [1]: 92% | Inhibition (%) of the luciferase light signal [2]: 91% | Inhibition (%) of the luciferase light signal [3]: 91% | Inhibition (%) of the luciferase light signal [4]: 90%

O=C(Nc1ccc(SC(F)(F)F)cc1)c1cc2cc(Br)ccc2c(Br)c1O [Compound 53]
Inhibition (%) of the luciferase light signal (5 μM, strain pIB29EL, Table 2C): 11% | Inhibition (%) of the luciferase light signal [1]: 38% | Inhibition (%) of the luciferase light signal [2]: 43% | Inhibition (%) of the luciferase light signal [3]: 58% | Inhibition (%) of the luciferase light signal [4]: 68%

O=C(Nc1ccccc1)c1cc(I)cc(I)c1O [Compound 31]
Inhibition (%) of the luciferase light signal (5 μM, strain pIB29EL, Table 2C): 10% | Inhibition (%) of the luciferase light signal [1]: 30% | Inhibition (%) of the luciferase light signal [2]: 60% | Inhibition (%) of the luciferase light signal [3]: 77% | Inhibition (%) of the luciferase light signal [4]: 98%

CC(=O)Oc1cc(C)ccc1C(=O)Nc1ccccc1F [Compound 30]
inhibition at 5 µM [5]: 14% | inhibition at 10 µM [5]: 15% | inhibition at 20 µM [5]: 35% | inhibition at 50 µM [5]: 63% | inhibition at 100 µM [5]: 83%

O=C(Nc1ccc(Cl)c(Cl)c1)c1ccccc1NS(=O)(=O)c1cccc2nsnc12 [Compound 59]
Inhibition (%) of the luciferase light signal (5 μM, strain pIB29EL, Table 2C): 0% | Inhibition (%) of the luciferase light signal [1]: 0% | Inhibition (%) of the luciferase light signal [2]: 0% | Inhibition (%) of the luciferase light signal [3]: 7% | Inhibition (%) of the luciferase light signal [4]: 10%

O=C(Nc1ccc(Cl)cc1)c1cc(I)ccc1O [Compound 23]
Inhibition (%) of the luciferase light signal (5 μM, strain pIB29EL, Table 2C): 70% | Inhibition (%) of the luciferase light signal [1]: 75% | Inhibition (%) of the luciferase light signal [2]: 83% | Inhibition (%) of the luciferase light signal [3]: 80% | Inhibition (%) of the luciferase light signal [4]: 78%

CC(=O)Oc1ccc(I)cc1C(=O)Nc1ccc(Br)cc1 [Compound 51]
Inhibition (%) of the luciferase light signal (5 μM, strain pIB29EL, Table 2C): 91% | Inhibition (%) of the luciferase light signal [1]: 87% | Inhibition (%) of the luciferase light signal [2]: 89% | Inhibition (%) of the luciferase light signal [3]: 87% | Inhibition (%) of the luciferase light signal [4]: 85%

O=C(Nc1cccc(Cl)c1)c1cc(Cl)ccc1NS(=O)(=O)c1cccc2nsnc12 [Compound 57]
Inhibition (%) of the luciferase light signal (5 μM, strain pIB29EL, Table 2C): 0% | Inhibition (%) of the luciferase light signal [1]: 7% | Inhibition (%) of the luciferase light signal [2]: 26% | Inhibition (%) of the luciferase light signal [3]: 49% | Inhibition (%) of the luciferase light signal [4]: 55%

CC(=O)Oc1c(Br)cc(Br)cc1C(=O)Nc1ccccc1F [Compound 19]
Inhibition (%) of the luciferase light signal (10 μM, pIB29EL, Table 2A): 0% | Inhibition (%) of the luciferase light signal (20 μM, pIB29EL, Table 2A): 0% | Inhibition (%) of the luciferase light signal (50 μM, pIB29EL, Table 2A): 45% | Inhibition (%) of the luciferase light signal (100 μM, pIB29EL, Table 2A): 70%

O=C(Nc1ccc(Cl)cc1)c1ccccc1NS(=O)(=O)c1cccc2nsnc12 [Compound 58]
Inhibition (%) of the luciferase light signal (5 μM, strain pIB29EL, Table 2C): 4% | Inhibition (%) of the luciferase light signal [1]: 5% | Inhibition (%) of the luciferase light signal [2]: 10% | Inhibition (%) of the luciferase light signal [3]: 11% | Inhibition (%) of the luciferase light signal [4]: 15%

O=C(N/N=C/c1c(O)ccc2ccccc12)c1ccccc1 [Compound 9]
Inhibition (%) of the luciferase light signal (10 μM, pIB29EL, Table 2A): 9% | Inhibition (%) of the luciferase light signal (20 μM, pIB29EL, Table 2A): 21% | Inhibition (%) of the luciferase light signal (50 μM, pIB29EL, Table 2A): 41% | Inhibition (%) of the luciferase light signal (100 μM, pIB29EL, Table 2A): 49%

O=C(N/N=C/c1cc(O)ccc1O)c1ccco1 [Compound 12]
Inhibition (%) of the luciferase light signal (10 μM, pIB29EL, Table 2A): 12% | Inhibition (%) of the luciferase light signal (20 μM, pIB29EL, Table 2A): 16% | Inhibition (%) of the luciferase light signal (50 μM, pIB29EL, Table 2A): 41% | Inhibition (%) of the luciferase light signal (100 μM, pIB29EL, Table 2A): 65%

CCCCCCc1cc(/C=N/NC(=O)c2ccc([N+](=O)[O-])cc2)c(O)cc1O [Compound 11]
Inhibition (%) of the luciferase light signal (10 μM, pIB29EL, Table 2A): 30% | Inhibition (%) of the luciferase light signal (20 μM, pIB29EL, Table 2A): 42% | Inhibition (%) of the luciferase light signal (50 μM, pIB29EL, Table 2A): 69% | Inhibition (%) of the luciferase light signal (100 μM, pIB29EL, Table 2A): 80%

O=C(Nc1ccc(Cl)cc1)c1cc(I)cc(I)c1O [Compound 25]
inhibition at 5 µM [5]: 80% | inhibition at 10 µM [5]: 92% | inhibition at 20 µM [5]: 93% | inhibition at 50 µM [5]: 100% | inhibition at 100 µM [5]: 98%

O=C(N/N=C/c1cc(Br)cc(Br)c1O)c1cccnc1 [Compound 7]
Inhibition (%) of the luciferase light signal (10 μM, pIB29EL, Table 2A): 25% | Inhibition (%) of the luciferase light signal (20 μM, pIB29EL, Table 2A): 20% | Inhibition (%) of the luciferase light signal (50 μM, pIB29EL, Table 2A): 68% | Inhibition (%) of the luciferase light signal (100 μM, pIB29EL, Table 2A): 93%

O=C(Nc1ccc(Cl)cc1)c1ccccc1O [Compound 24]
inhibition at 5 µM [5]: 7% | inhibition at 10 µM [5]: 30% | inhibition at 20 µM [5]: 73% | inhibition at 50 µM [5]: 90% | inhibition at 100 µM [5]: 88%

CC(=O)Oc1c(I)cc(I)cc1C(=O)Nc1ccc(F)cc1 [Compound 17]
Inhibition (%) of the luciferase light signal (10 μM, pIB29EL, Table 2A): 36% | Inhibition (%) of the luciferase light signal (20 μM, pIB29EL, Table 2A): 42% | Inhibition (%) of the luciferase light signal (50 μM, pIB29EL, Table 2A): 89% | Inhibition (%) of the luciferase light signal (100 μM, pIB29EL, Table 2A): 90%

CC(=O)Oc1c(I)cc(I)cc1C(=O)Nc1ccc(SC(F)(F)F)cc1 [Compound 33]
inhibition at 5 µM [5]: 71% | inhibition at 10 µM [5]: 70% | inhibition at 20 µM [5]: 68% | inhibition at 50 µM [5]: 69% | inhibition at 100 µM [5]: 71%

O=C(Nc1ccccc1F)c1cc(Br)cc(Br)c1O [Compound 27]
inhibition at 5 µM [5]: 9% | inhibition at 10 µM [5]: 3% | inhibition at 20 µM [5]: 1% | inhibition at 50 µM [5]: 13% | inhibition at 100 µM [5]: 20%

CC(=O)Oc1c(I)cc(I)cc1C(=O)Nc1ccccc1 [Compound 18]
Inhibition (%) of the luciferase light signal (10 μM, pIB29EL, Table 2A): 11% | Inhibition (%) of the luciferase light signal (20 μM, pIB29EL, Table 2A): 51% | Inhibition (%) of the luciferase light signal (50 μM, pIB29EL, Table 2A): 70% | Inhibition (%) of the luciferase light signal (100 μM, pIB29EL, Table 2A): 62%

CCCCCCCc1ccc(NC(=O)c2cc(I)cc(I)c2O)cc1 [Compound 28]
inhibition at 5 µM [5]: 67% | inhibition at 10 µM [5]: 90% | inhibition at 20 µM [5]: 99% | inhibition at 50 µM [5]: 99% | inhibition at 100 µM [5]: 99%

O=C(N/N=C/c1ccc(O)cc1O)c1cc2ccccc2cc1O [Compound 13]
Inhibition (%) of the luciferase light signal (10 μM, pIB29EL, Table 2A): 26% | Inhibition (%) of the luciferase light signal (20 μM, pIB29EL, Table 2A): 47% | Inhibition (%) of the luciferase light signal (50 μM, pIB29EL, Table 2A): 69% | Inhibition (%) of the luciferase light signal (100 μM, pIB29EL, Table 2A): 73%

CC(C)(C)c1ccc(NC(=O)c2c(O)c(Cl)cc(Cl)c2Cl)cc1 [Compound 32]
inhibition at 5 µM [5]: 14% | inhibition at 10 µM [5]: 23% | inhibition at 20 µM [5]: 37% | inhibition at 50 µM [5]: 42% | inhibition at 100 µM [5]: 46%

NC(=O)C(=O)N/N=C/c1cc(Br)cc(Br)c1O [Compound 61]
Inhibition (%) of the luciferase light signal (5 μM, strain pIB29EL, Table 2C): 7% | Inhibition (%) of the luciferase light signal [1]: 9% | Inhibition (%) of the luciferase light signal [2]: 19% | Inhibition (%) of the luciferase light signal [3]: 32% | Inhibition (%) of the luciferase light signal [4]: 55%

C=CCc1cccc(/C=N/NC(=O)c2ccc([N+](=O)[O-])cc2)c1O [Compound 10]
Inhibition (%) of the luciferase light signal (10 μM, pIB29EL, Table 2A): 30% | Inhibition (%) of the luciferase light signal (20 μM, pIB29EL, Table 2A): 49% | Inhibition (%) of the luciferase light signal (50 μM, pIB29EL, Table 2A): 56% | Inhibition (%) of the luciferase light signal (100 μM, pIB29EL, Table 2A): 57%

CC(=O)Oc1ccc(I)cc1C(=O)Nc1ccc(Cl)cc1 [Compound 16]
Inhibition (%) of the luciferase light signal (5 μM (first of two columns headed 5), pIB29EL, Table 2B): 65% | Inhibition (%) of the luciferase light signal (5 μM (second of two columns headed 5), pIB29EL, Table 2B): 97% | Inhibition (%) of the luciferase light signal (10 μM, pIB29EL, Table 2B): 98% | Inhibition (%) of the luciferase light signal (20 μM, pIB29EL, Table 2B): 97%

[H]/N=C(/N)N[C@H]1[C@H](O)[C@@H](O)[C@H](O[C@@H]2O[C@@H](C)[C@](O)(C=O)[C@H]2O[C@@H]2O[C@@H](CO)[C@H](O)[C@@H](O)[C@@H]2NC)[C@@H](N/C(N)=N\[H])[C@@H]1O [Streptomycin, reference compound]
IC50 (Yersinia pseudotuberculosis): 4000 nM | Inhibition of light-emission (in words) (known antibiotics, pIB29EL): dose-dependent inhibition of light-emission

O=C(Nc1ccc(Br)cc1)c1cc(I)ccc1O [Compound 50]
Inhibition (%) of the luciferase light signal (5 μM, strain pIB29EL, Table 2C): 57% | Inhibition (%) of the luciferase light signal [1]: 69% | Inhibition (%) of the luciferase light signal [2]: 62% | Inhibition (%) of the luciferase light signal [3]: 72% | Inhibition (%) of the luciferase light signal [4]: 70%

O=C(Nc1ccc(SC(F)(F)F)cc1)c1cc(I)cc(I)c1O [Compound 26]
inhibition at 5 µM [5]: 15% | inhibition at 10 µM [5]: 15% | inhibition at 20 µM [5]: 41% | inhibition at 50 µM [5]: 84% | inhibition at 100 µM [5]: 93%

C/C(=N\NC(=O)c1ccc([N+](=O)[O-])cc1)c1cc(Br)cc(Br)c1O [Compound 21]
inhibition at 10 µM [5]: 21% | inhibition at 20 µM [5]: 18% | inhibition at 50 µM [5]: 44% | inhibition at 100 µM [5]: 57%

CC(C)(C)c1ccc(NC(=O)c2cc(I)cc(I)c2O)cc1 [Compound 29]
inhibition at 5 µM [5]: 19% | inhibition at 10 µM [5]: 18% | inhibition at 20 µM [5]: 21% | inhibition at 50 µM [5]: 30% | inhibition at 100 µM [5]: 28%

O=C(Nc1ccc(SC(F)(F)F)cc1)c1cccc(Cl)c1O [Compound 54]
Inhibition (%) of the luciferase light signal (5 μM, strain pIB29EL, Table 2C): 41% | Inhibition (%) of the luciferase light signal [1]: 63% | Inhibition (%) of the luciferase light signal [2]: 86% | Inhibition (%) of the luciferase light signal [3]: 89% | Inhibition (%) of the luciferase light signal [4]: 87%
